The text below walks through data of patent US12364709B2, “Bioavailable poly amines” (AMINEX THERAPEUTICS, INC., priority 2016, dated 2025).

The conditions of data set [1]: cited from earlier work.
The conditions of data set [2]: cited from earlier work. The source holds these as a separate data set.
For data set [3] the following is noted: 3 h intravenous infusions; cited from earlier work.
A short description of data set [4]: Pharmacokinetic analysis of AMXT 1501 salt forms, single oral tablet dose. It is filed as in vivo, beagle dogs. An excerpt:
Following dose administration all the animals had serial blood collections. Table 18 provides pharmacokinetic data obtained using the various salt forms of AMXT 1501 following single PO dosing to dogs. In Table 18, Group 1 received the free base form of AMXT 1501, Group 2 received the dicholate salt of AMXT 1501, Group 3 received the phosphate salt form of AMXT 1501, and Group 4 received the dicaprate salt form of AMXT 1501. […] In Table 18, SD refers to standard deviation and CV % refers to coefficient of variability.

Setting [5] is: single PO dose 16.0 mg/kg (2 x 80 mg tablets), plasma AMXT 1501.
Where [6] appears, read: single PO dose 16.0 mg/kg (2 x 80 mg tablets), plasma AMXT 1501, 16 mg/kg.
Setting [7] is: single PO dose 16.0 mg/kg, plasma AMXT 1501, 16 mg/kg.
[8] abbreviates: single PO dose 16.0 mg/kg, t=24 hours, plasma AMXT 1501, 16 mg/kg.

`c1cc(CN2CCCNCCNCCCNCC2)ccc1CN1CCCNCCNCCCNCC1` [Mozobil]: the “clearance by” value in data set [1] (subcutaneous 40-360 μg/kg, healthy volunteers) is at most 10 h. Further, the Plasma half-life in data set [1] (subcutaneous) is 3 h.
`CCNCCCCNCCCCNCCCCNCC` [DEHSpm, N1,N14-diethylhomospermine]: in data set [2] (2-4 hrs. post-injection), the drug in plasma entry was “not observed”. Further, the objective response entry in data set [2] (solid tumor patients) was “None of the 15 patients”.
For the compound `N=C(N)NCCCCCCC(=O)NC(O)C(=O)NCCCCNCCCN` (stereo not shown) [deoxyspergualin], in data set [3], the half-life (commonly how long it takes for the measured level to halve) is reported as 1.8 h.
For the compound `CCCCCCCCCCCCCCCC(=O)NCCCC[C@@H](N)C(=O)NCCCNCCCCNCCCN` [AMXT 1501 free base], in data set [4] (setting [5]), the “Tmax Median” value amounted to 6.00 h and the “Tmax Min.” value was determined as 6.00 h. Besides, in data set [4] (setting [6]), the “Cmax Max.” value is listed as 468 ng/mL, the “Cmax Mean” value was 250 ng/mL, the “Cmax Median” value is on record as 250 ng/mL and the “Cmax Min.” value came out at 31.3 ng/mL. Also, in data set [4] (setting [6]), the “Tmax Max.” value stood at 12.0 h and the “Tmax Mean” value was determined as 8.00 h. For the same compound, in data set [4] (setting [7]), the “t1/2 Max.” value is 9.76 h, the “t1/2 Mean” value came out at 9.76 h, the “t1/2 Median” value worked out at 9.76 h and the “t1/2 Min.” value amounted to 9.76 h. Further, in data set [4] (setting [8]), the “AUC0-t Max.” value stood at 8450 ng·h/mL, the “AUC0-t Mean” value stood at 4710 ng·h/mL, the “AUC0-t Median” value came to 5330 ng·h/mL and the “AUC0-t Min.” value was determined as 363 ng·h/mL. Also, in data set [4] (single oral delivery, FIGS. 5A-5D), the “inter-animal consistency of plasma AMXT 1501 levels” value is listed as “variable drug levels”.
